Assay results published in ChEMBL document CHEMBL4482324, “Ash1l inhibitors and methods of treatment therewith” (2017).

Target: Histone-lysine N-methyltransferase ASH1L (Homo sapiens, UniProt Q9NR48)
Assay: Inhibition of MOCR-fused ASH1L SET-BAH ( 2069 to 2833 amino acids) (unknown origin) expressed as in Escherichia coli BL21 (DE3) T1R cells using SAM and chicken mono/dinucleosomes incubated for 1 hr by scintillation counting assay

| Structure (SMILES) | IC50 [µM] |
| --- | --- |
| Cc1cc(O)cc(C)c1-c1cccc(C(N)=S)c1 | > 100 |
| COc1ccc(-c2cccc(C(N)=S)c2)cc1 | > 100 |
| NC(=S)c1cccc(-c2cc(CCC(F)F)c3cc[nH]c3c2)c1 | < 20 |
| NC(=S)c1cccc(-c2cn(CC(CF)CF)c3cc(O)ccc23)c1 | < 20 |
| NC(=S)c1cccc(-c2cn(CCC(F)F)c3cc(C(O)CO)ccc23)c1 (stereo not drawn) | < 20 |
| NC(=S)c1cccc(-c2c[nH]c3cc(N)ccc23)c1 | 20 to 100 |
| NC(=S)c1ccc(N)c(-c2cccc3[nH]ccc23)c1 | > 100 |
| NC(=S)c1cccc(-c2cc(CC(CF)CF)c3[nH]ccc3c2)c1 | < 20 |
| NC(=S)c1cccc(-c2ccc(O)c3c2CCC3)c1 | > 100 |
| NC(=S)c1cccc(-c2ccc(O)cc2)c1F | > 100 |
| CCCS(=O)(=O)N1CCC(n2cc(-c3cccc(C(N)=S)c3)c3ccc(N)cc32)CC1 | < 20 |
| NC(=S)c1cccc(-c2ccc(S(N)(=O)=O)cc2)c1 | > 100 |
| O=C1NCc2c1cccc2-c1ccc(O)cc1 | > 100 |
| NC(=S)c1cccc(-c2cn(CC3CCC3)c3cc(CO)ccc23)c1 | < 20 |
| NC(=S)c1cccc(-c2cn(CCC(F)F)c3cc(CNc4c[nH]cn4)ccc23)c1 | < 20 |
| CCCc1c[nH]c(CC(=O)NCc2ccc3c(-c4cccc(C(N)=S)c4)cn(C4CCN(S(C)(=O)=O)CC4)c3c2)c1 | < 20 |
| NC(=S)c1cccc(-c2cn(CC(CO)CO)c3cc(N)ccc23)c1 | < 20 |
| NC(=S)c1cccc(-c2cn(C3CCN(C(=O)CCCCc4cccc5c4C(=O)N(C4CCC(=O)NC4=O)C5=O)CC3)c3cc(CNc4nnc(N)s4)ccc23)c1 (stereo not drawn) | < 20 |
| NC(=S)c1ccnc(-c2cn(CC(CF)CF)c3cc(CO)ccc23)c1 | < 20 |
| CCCn1cncc1CC(=O)NCc1ccc2c(-c3cccc(C(N)=S)c3)cn(C3CCN(S(=O)(=O)CCC)CC3)c2c1 | < 20 |
| CSCCn1cc(-c2cccc(C(N)=S)c2)c2ccc(N)cc21 | < 20 |
| NC(=S)c1cc(-c2cn(CCC(F)F)c3cc(CO)ccc23)c2[nH]ccc2c1 | < 20 |

| Structure (SMILES) | IC50 [µM] |
| --- | --- |
| CC1(Cn2cc(-c3cccc(C(N)=S)c3)c3ccc(CO)cc32)CC1 | < 20 |
| Cc1cc(-c2cccc(C(N)=S)c2)ccc1O | > 100 |
| NC(=S)c1cccc(-c2cn(CC(F)(F)F)c3cc(N)ccc23)c1 | < 20 |
| NC(=S)c1cccc(-c2cn(CC3CC3(F)F)c3cc(N)ccc23)c1 (stereo not drawn) | < 20 |
| NC(=S)c1cccc(-c2cn(Cc3ccc[nH]3)c3cc(CO)ccc23)c1 | < 20 |
| CCn1ccc2c(-c3cccc(C(N)=S)c3)cccc21 | > 100 |
| NC(=S)c1cccc(-c2cn(CC(O)C(F)(F)F)c3cc(CO)ccc23)c1 (stereo not drawn) | < 20 |
| NC(=S)c1cccc(-c2cn(CC(=O)C(F)(F)F)c3cc(CO)ccc23)c1 | < 20 |
| NC(=S)c1cccc(-c2ccc(O)c(F)c2)c1 | > 100 |
| CN(C)CCNc1ccc2c(-c3cccc(C(N)=S)c3)cn(CCCC(F)(F)F)c2c1 | > 100 |
| NC(=S)c1cccc(-c2ccc(O)cc2)c1 | > 100 |
| NC(=S)c1cccc(-c2cn(C3CCN(S(=O)(=O)CCCCCc4cccc5c4C(=O)N(C4CCC(=O)NC4=O)C5=O)CC3)c3cc(CNc4nnc(N)s4)ccc23)c1 (stereo not drawn) | < 20 |
| NC(=S)c1cncc(-c2cccc3[nH]ccc23)c1 | > 100 |
| NC(=S)c1cccc(-c2cn(CC(CF)CF)c3cc(CNCCOCCOCCOCCNc4cccc5c4C(=O)N(C4CCC(=O)NC4=O)C5=O)ccc23)c1 (stereo not drawn) | < 20 |
| NC(=S)c1cccc(-c2cn(C3CNC3)c3cc(CO)ccc23)c1 | < 20 |
| COc1cc(C(N)=S)cc(-c2cccc3[nH]ccc23)c1 | > 100 |
| Cn1ccc2c(-c3cccc(C(N)=S)c3)cccc21 | 20 to 100 |
| NC(=S)c1cccc(-c2cn(CC(O)CO)c3cc(N)ccc23)c1 (stereo not drawn) | < 20 |
| NC(=S)c1cccc(-c2ccc(O)cc2)n1 | > 100 |
| CCCCn1cnc(CC(=O)NCc2ccc3c(-c4cccc(C(N)=S)c4)cn(C4CCOCC4)c3c2)c1 | < 20 |
| NC(=S)c1cccc(-c2cn(C3CCCC3)c3cc(N)ccc23)c1 | < 20 |
